Reference: patent US20150284375A1 (AJINOMOTO CO., INC., priority 2012, published 2015)
Read-outs that look alike come from different tables or passages of the source.

Biological target: T1, human TRPA1 (Homo sapiens, UniProt O75762)
T1 construct: expressed in transfected cells; host or cells: Human embryonic kidney-derived 293T cells, transiently transfected with the pcDNA3.1/zeo(+) human TRPA1 plasmid
Assay: Measurement of TRPA1 antagonist activity (intracellular calcium increase, FLIPR, allylisothiocyanate stimulation)
Type: cell-based
Conditions: read-out: antagonism hTRPA1
Summary of the method: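 IC50 derives from a sigmoid fit of inhibition of the 5-min FLIPR fluorescence change evoked by 20 μM allylisothiocyanate, normalized between agonist and buffer responses. Test substance, diluted in HBSS/20 mM HEPES pH 7.2 plus 0.1% BSA, was applied 10 min beforehand at room temperature to Calcium4-loaded 293T cells transiently expressing human TRPA1.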

[1] = 293T cells transfected with human TRPA1, allylisothiocyanate 20 μM, concentration for 50% inhibitory rate
[2] = allylisothiocyanate 20 μM stimulation, FLIPR calcium assay

T1 sequence (O75762 whole entry): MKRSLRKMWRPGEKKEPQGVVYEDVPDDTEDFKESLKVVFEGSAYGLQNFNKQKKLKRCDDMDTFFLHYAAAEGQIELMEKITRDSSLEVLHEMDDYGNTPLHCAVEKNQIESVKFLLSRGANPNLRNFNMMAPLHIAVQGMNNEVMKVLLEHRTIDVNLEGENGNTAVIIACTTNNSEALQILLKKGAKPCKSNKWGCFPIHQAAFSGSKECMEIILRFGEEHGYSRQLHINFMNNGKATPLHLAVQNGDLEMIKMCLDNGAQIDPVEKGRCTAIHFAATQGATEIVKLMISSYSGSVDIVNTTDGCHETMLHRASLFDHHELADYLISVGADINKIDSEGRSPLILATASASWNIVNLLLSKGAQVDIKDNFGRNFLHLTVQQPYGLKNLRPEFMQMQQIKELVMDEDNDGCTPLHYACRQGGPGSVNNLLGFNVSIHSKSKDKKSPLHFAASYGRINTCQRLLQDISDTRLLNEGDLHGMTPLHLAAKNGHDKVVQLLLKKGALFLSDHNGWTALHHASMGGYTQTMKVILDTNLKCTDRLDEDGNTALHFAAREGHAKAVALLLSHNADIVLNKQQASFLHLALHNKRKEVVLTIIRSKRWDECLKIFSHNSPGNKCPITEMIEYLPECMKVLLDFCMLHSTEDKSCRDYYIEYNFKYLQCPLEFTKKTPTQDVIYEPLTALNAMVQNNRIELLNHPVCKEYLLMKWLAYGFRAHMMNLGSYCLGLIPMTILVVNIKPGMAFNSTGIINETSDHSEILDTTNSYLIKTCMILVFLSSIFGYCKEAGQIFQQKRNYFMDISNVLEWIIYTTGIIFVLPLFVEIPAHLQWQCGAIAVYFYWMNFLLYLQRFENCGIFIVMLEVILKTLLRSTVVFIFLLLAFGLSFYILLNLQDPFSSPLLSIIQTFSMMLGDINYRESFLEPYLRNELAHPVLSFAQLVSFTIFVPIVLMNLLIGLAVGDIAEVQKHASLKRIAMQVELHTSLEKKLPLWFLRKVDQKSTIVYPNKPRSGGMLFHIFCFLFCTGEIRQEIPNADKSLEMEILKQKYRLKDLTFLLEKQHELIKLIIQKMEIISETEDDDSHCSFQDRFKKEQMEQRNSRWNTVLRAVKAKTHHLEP

IC50 [1]	IC50 [2]	SMILES
120 nM		O=C(NCc1ccc(COc2cccc(C(F)(F)F)c2)cc1C(F)(F)F)[C@@H]1CCCN1S(=O)(=O)c1ccc(Cl)s1 [Example 78]
2200 nM		O=C(NCc1ccccc1COc1ccccc1)[C@@H]1CCCN1S(=O)(=O)c1ccc(Cl)s1 [Example 79]
270 nM		O=C(NCc1ccccc1COc1ccc(C(F)(F)F)cc1)[C@@H]1CCCN1S(=O)(=O)c1ccc(Cl)s1 [Example 80]
580 nM		O=C(NCc1ccccc1COc1cccc(C(F)(F)F)c1)[C@@H]1CCCN1S(=O)(=O)c1ccc(Cl)s1 [Example 81]
1200 nM		O=C(NCc1ccc(COc2ccccc2)cc1)[C@@H]1CCCN1S(=O)(=O)c1ccc(F)cc1 [Example 82, (2S)-1-[(4-fluorophenyl)sulfonyl]-N-{[4-(phenoxymethyl)phenyl]methyl}pyrrolidine-2-carboxamide]
430 nM		O=C(NCc1ccc(COc2ccccc2)cc1)[C@@H]1C=CCN1S(=O)(=O)c1ccc(Cl)s1 [Example 83]
1100 nM		O=C(NCc1ccc(COc2ccccc2)cc1)[C@@H]1CCCN1S(=O)(=O)c1ccc(F)c(F)c1 [Example 84]
3500 nM		O=C(NCc1ccc(COc2ccccc2)cc1)[C@@H]1CCCN1S(=O)(=O)c1cccc(F)c1 [Example 85]
7000 nM		O=C(NCc1ccc(COc2ccccc2)cc1)[C@@H]1CCCN1S(=O)(=O)c1cccs1 [Example 86]
7700 nM		O=C(NCc1ccc(COc2ccccc2)cc1)[C@@H]1CC(O)CN1S(=O)(=O)c1ccc(Cl)s1 (some centres unmarked) [Example 87]
370 nM		O=C(NCc1nc(COc2ccc(C(F)(F)F)cc2)cs1)[C@@H]1CCCN1S(=O)(=O)c1ccc(Cl)s1 [Example 88]
340 nM		O=C(NCc1nc(COc2cccc(C(F)(F)F)c2)cs1)[C@@H]1CCCN1S(=O)(=O)c1ccc(Cl)s1 [Example 89]
150 nM		O=C(NCc1nc(COc2ccccc2C(F)(F)F)cs1)[C@@H]1CCCN1S(=O)(=O)c1ccc(Cl)s1 [Example 90]
94 nM		O=C(NCc1ccc(OCc2ccccc2)cc1)[C@@H]1CCCN1S(=O)(=O)c1ccc(Cl)s1 [Example 91]
110 nM		O=C(NCc1ccc(OCc2ccc(C(F)(F)F)cc2)cc1)[C@@H]1CCCN1S(=O)(=O)c1ccc(Cl)s1 [Example 92]
4200 nM		O=C(NCc1ccc(OCc2cccc(C(F)(F)F)c2)cc1)[C@@H]1CCCN1S(=O)(=O)c1ccc(Cl)s1 [Example 93]
370 nM		O=C(NCc1ccc(OCc2ccccc2C(F)(F)F)cc1)[C@@H]1CCCN1S(=O)(=O)c1ccc(Cl)s1 [Example 94]
22 nM		O=C(NCc1cccc(OCc2ccccc2)c1)[C@@H]1CCCN1S(=O)(=O)c1ccc(Cl)s1 [Example 95]
19 nM		O=C(NCc1cccc(OCc2ccc(C(F)(F)F)cc2)c1)[C@@H]1CCCN1S(=O)(=O)c1ccc(Cl)s1 [Example 96]
30 nM		O=C(NCc1cccc(OCc2ccc(OC(F)(F)F)cc2)c1)[C@@H]1CCCN1S(=O)(=O)c1ccc(Cl)s1 [Example 97]
10 nM		O=C(NCc1cccc(OCc2ccc(Cl)cc2)c1)[C@@H]1CCCN1S(=O)(=O)c1ccc(Cl)s1 [Example 98]
12 nM		O=C(NCc1cccc(OCc2ccc(F)cc2)c1)[C@@H]1CCCN1S(=O)(=O)c1ccc(Cl)s1 [Example 99]
8.9 nM		O=C(NCc1cccc(OCc2cccc(C(F)(F)F)c2)c1)[C@@H]1CCCN1S(=O)(=O)c1ccc(Cl)s1 [Example 100]
16 nM		O=C(NCc1cccc(OCc2cccc(OC(F)(F)F)c2)c1)[C@@H]1CCCN1S(=O)(=O)c1ccc(Cl)s1 [Example 101]
15 nM		O=C(NCc1cccc(OCc2cccc(Cl)c2)c1)[C@@H]1CCCN1S(=O)(=O)c1ccc(Cl)s1 [Example 102]

IC50 [1]	IC50 [2]	SMILES
15 nM		O=C(NCc1cccc(OCc2cccc(F)c2)c1)[C@@H]1CCCN1S(=O)(=O)c1ccc(Cl)s1 [Example 103]
80 nM		O=C(NCc1cccc(OCc2ccccc2C(F)(F)F)c1)[C@@H]1CCCN1S(=O)(=O)c1ccc(Cl)s1 [Example 104]
130 nM		O=C(NCc1ccc(F)c(OCc2ccc(C(F)(F)F)cc2)c1F)[C@@H]1CCCN1S(=O)(=O)c1ccc(Cl)s1 [Example 105]
1200 nM		O=C(NCc1c(F)ccc(OCc2ccc(C(F)(F)F)cc2)c1Cl)[C@@H]1CCCN1S(=O)(=O)c1ccc(Cl)s1 [Example 106]
14 nM		O=C(NCc1cccc(OCc2ccccc2)c1)[C@@H]1C=CCN1S(=O)(=O)c1ccc(Cl)s1 [Example 107, (2S)—N-[(3-benzyloxyphenyl)methyl]-1-(5-chlorothiophene-2-sulfonyl)-2,5-dihydropyrrole-2-carboxamide]
66 nM		O=C(NCc1cccc(OCc2ccccc2)c1)[C@@H]1CCCN1S(=O)(=O)c1ccc(F)cc1 [Example 108]
120 nM		O=C(NCc1cccc(OCc2ccccc2)c1)[C@@H]1CCN1S(=O)(=O)c1ccc(Cl)s1 [Example 109]
76 nM		O=C(NCc1cccc(OCc2ccccc2)c1)[C@@H]1CCCN1S(=O)(=O)c1ccc(F)c(F)c1 [Example 110]
24 nM		O=C(NCc1cccc(OCc2ccc(C(F)(F)F)cc2)c1)[C@@H]1C=CCN1S(=O)(=O)c1ccc(F)cc1 [Example 111]
230 nM		O=C(NCc1cccc(OCc2ccc(C(F)(F)F)cc2)c1)[C@@H]1CCN1S(=O)(=O)c1ccc(F)cc1 [Example 112]
71 nM		O=C(NCc1cccc(OCc2ccc(C(F)(F)F)cc2)c1)[C@@H]1CCCN1S(=O)(=O)c1ccc(Cl)cc1 [Example 113]
	570 nM	O=C(NCc1cccc(Oc2ccnc(C(F)(F)F)c2)c1)[C@@H]1CCCN1S(=O)(=O)c1ccc(F)cc1 [Example 114, (2S)-1-(4-fluorophenyl)sulfonyl-N-[[3-[[2-(trifluoromethyl)-4-pyridyl]oxy]phenyl]methyl]pyrrolidine-2-carboxamide]
	210 nM	O=C(NCc1cccc(Oc2ccc(C(F)(F)F)nc2)c1)[C@@H]1CCCN1S(=O)(=O)c1ccc(F)cc1 [Example 115, (2S)-1-(4-fluorophenyl)sulfonyl-N-[[3-[[6-(trifluoromethyl)-3-pyridyl]oxy]phenyl]methyl]pyrrolidine-2-carboxamide]
	1300 nM	CN(C)c1cccc(Oc2cccc(CNC(=O)[C@@H]3CCCN3S(=O)(=O)c3ccc(F)cc3)c2)c1 [Example 116, (2S)-N-[[3-[3-(dimethylamino)phenoxy]phenyl]methyl]-1-(4-fluorophenyl)sulfonyl-pyrrolidine-2-carboxamide]
	9900 nM	CN(C)c1ccc(Oc2cccc(CNC(=O)[C@@H]3CCCN3S(=O)(=O)c3ccc(F)cc3)c2)cc1 [Example 117, (2S)-N-[[3-[4-(dimethylamino)phenoxy]phenyl]methyl]-1-(4-fluorophenyl)sulfonyl-pyrrolidine-2-carboxamide]
	270 nM	N#Cc1ccc(Oc2cccc(CNC(=O)[C@@H]3CCCN3S(=O)(=O)c3ccc(F)cc3)c2)cc1 [Example 118, (2S)-N-[[3-(4-cyanophenoxy)phenyl]methyl]-1-(4-fluorophenyl)sulfonyl-pyrrolidine-2-carboxamide]
	1000 nM	CC(C)(C)c1ccc(Oc2cccc(CNC(=O)[C@@H]3CCCN3S(=O)(=O)c3ccc(F)cc3)c2)cc1 [Example 119, (2S)-N-[[3-(4-tert-butylphenoxy)phenyl]methyl]-1-(4-fluorophenyl)sulfonyl-pyrrolidine-2-carboxamide]
	17 nM	O=C(NCc1cccc(OCc2ccc(Cl)cc2)c1)[C@@H]1CCCN1S(=O)(=O)c1ccc(F)cc1 [Example 120, (2S)-N-[[3-[(4-chlorophenyl)methoxy]phenyl]methyl]-1-(4-fluorophenyl)sulfonyl-pyrrolidine-2-carboxamide]
	31 nM	O=C(NCc1cccc(OCc2ccc(F)cc2)c1)[C@@H]1CCCN1S(=O)(=O)c1ccc(F)cc1 [Example 121, (2S)-N-[[3-[(4-fluorophenyl)methoxy]phenyl]methyl]-1-(4-fluorophenyl)sulfonyl-pyrrolidine-2-carboxamide]
	440 nM	CC(C)(C)c1ccc(COc2cccc(CNC(=O)[C@@H]3CCCN3S(=O)(=O)c3ccc(F)cc3)c2)cc1 [Example 122]
	25 nM	O=C(NCc1cccc(OCc2cccc(C(F)(F)F)c2)c1)[C@@H]1CCCN1S(=O)(=O)c1ccc(F)cc1 [Example 123, (2S)-1-(4-fluorophenyl)sulfonyl-N-[[3-[[3-(trifluoromethyl)phenyl]methoxy]phenyl]methyl]pyrrolidine-2-carboxamide]
	130 nM	COc1cccc(COc2cccc(CNC(=O)[C@@H]3CCCN3S(=O)(=O)c3ccc(F)cc3)c2)c1 [Example 124, (2S)-1-(4-fluorophenyl)sulfonyl-N-[[3-[(3-methoxyphenyl)methoxy]phenyl]methyl]pyrrolidine-2-carboxamide]
	38 nM	CN(C)c1cccc(COc2cccc(CNC(=O)[C@@H]3CCCN3S(=O)(=O)c3ccc(F)cc3)c2)c1 [Example 125, (2S)-N-[[3-[[3-(dimethylamino)phenyl]methoxy]phenyl]methyl]-1-(4-fluorophenyl)sulfonyl-pyrrolidine-2-carboxamide]
	38 nM	O=C(NCc1cccc(OCc2cccc(N3CCCCC3)c2)c1)[C@@H]1CCCN1S(=O)(=O)c1ccc(F)cc1 [Example 126, (2S)-1-(4-fluorophenyl)sulfonyl-N-[[3-[[3-(1-piperidyl)phenyl]methoxy]phenyl]methyl]pyrrolidine-2-carboxamide]
	130 nM	O=C(NCc1cccc(OCc2cccc(N3CCOCC3)c2)c1)[C@@H]1CCCN1S(=O)(=O)c1ccc(F)cc1 [Example 127, (2S)-1-(4-fluorophenyl)sulfonyl-N-[[3-[(3-morpholinophenyl)methoxy]phenyl]methyl]pyrrolidine-2-carboxamide]
